Test results published in patent publication US20230074892A1, “BACTERIOPHAGE COMPOSITIONS AND USES THEREOF” (YALE UNIVERSITY, priority 2019, published 2023).

What was measured:
P. aeruginosa bacteria = assay: Pyocyanin level in culture supernatant after treatment; assay type: cell-based; details: for bacteria pyocyanin relative to untreated control: single treatment, culture supernatant
Protocol: Shown is bacteria pyocyanin relative to untreated control. […] When P. aeruginosa bacteria are exposed to treatments along x-axis, the supernatant of the culture is tested for pyocyanin level.

PA14 = assay: Pyocyanin production in bacterial cultures; assay type: cell-based, Pseudomonas aeruginosa; details: antibiotic alone
Text: Deletion of type-IV pili is shown to attenuate virulence in P. aeruginosa, by impairing pyocyanin production, twitching motility, and biofilm formation (Persat et al. (2015) Proc. Natl. Acad. Sci. 112:7563-7568). Phage TIVP-H6 selects for phage resistance in P. aeruginosa via bacterial alteration or loss of type-IV pili.

Row | Structure (SMILES) | bacteria pyocyanin relative to untreated control (P. aeruginosa bacteria) | effect of antibiotic on pyocyanin production (PA14) | killing of bacteria in the pyocyanin assay (P. aeruginosa bacteria)
1 | O=C(O)c1cn(C2CC2)c2cc(N3CCNCC3)c(F)cc2c1=O [Ciprofloxacin] | do not reducte production | either increased or did not affect | –
2 | CC1(C)S[C@@H]2[C@H](NC(=O)C(C(=O)O)c3ccccc3)C(=O)N2[C@H]1C(=O)O (stereo partly drawn) [Carbenicillin] | do not reducte production | – | –
3 | CCn1cc(C(=O)O)c(=O)c2ccc(C)nc21 [Nalidixic acid] | do not reducte production | – | –
4 | CC[C@H]1OC(=O)[C@H](C)[C@@H](O[C@H]2C[C@@](C)(OC)[C@@H](O)[C@H](C)O2)[C@H](C)[C@@H](O[C@@H]2O[C@H](C)C[C@H](N(C)C)[C@H]2O)[C@](C)(O)C[C@@H](C)C(=O)[C@H](C)[C@@H](O)[C@]1(C)O [Eythromycin] | causes reduced pyocyanin production | – | does not kill bacteria in this assay
